# US11723362B2, “Broad-spectrum synergistic antimicrobial compositions” (The United States of America, as represented by the …, priority 2019, dated 2023)
# Columns and labels:
# [1] = system: A. brasiliensis; assay: Minimum inhibitory concentration (MIC) in Mueller-Hinton broth, pH 7.4; assay type: cell-based, Aspergillus brasiliensis; parameters: Minimum inhibitory concentration: unit not given here; conditions: for Minimum inhibitory concentration: Table 2
# Protocol: (§1) This example illustrates the preparation of testing parameters for antimicrobial activity of components of the inventive composition and related compositions for comparison. […] Microbes were grown on Mueller-Hinton agar (MHA, Sigma-Aldrich, St. Louis, Mo.) for 7 days until heavy sporulation was present. Spores from two agar plates were captured in sterile phosphate-buffered saline (PBS) using a sterile swab. Spores were enumerated by serial dilution in Dey-Engley neutralizing broth (DEB; Sigma-Aldrich) and spread plating on MHA. A typical spore stock was determined to contain ˜2×10^7 spores/mL. Bacteria were grown in MH broth for 24 h at 37° C., enumerated by plating, and diluted to the desired concentration as indicated.
# (§2) To assess the antimicrobial activity of hydroxamic acids and derivatives, the inhibitory properties of commercially available hydroxylamines and hydroxamic acids were compared to their alcohol and carboxylic acid analogues diluted in Mueller-Hinton broth at pH 7.4 (Table 1).
# [2] = system: Aspergillus brasiliensis ATCC 16404; assay: Fungicidal activity in ionic surfactant hand wash / foamy hand soap base formula (HW); assay type: cell-based; conditions: pH 7.0
# Protocol: as §1
# All test formulas were adjusted to the desired pH using citric acid and/or NaOH. […] All tubes were kept at room temperature (˜21-22° C.) for 3 weeks. About 100 μL of each inoculated foamy hand soap mixture was diluted 1:10 in DEB and 100 μL of this dilution was spread plated on MHA at several time points (e.g. 3 d, 7 d, 13 d, 18 d, and 20 d). Plates were incubated at room temperature for 3-5 days for mold (1-2 days for bacteria) and colonies enumerated.
# The preservative activity of a hydroxamic acid/guanylhydrazone combination was compared to other antimicrobial mixtures in an ionic surfactant-containing formula. […] The fungicidal properties of a mixture of benzhydroxamic acid and guanylhydrazone (1+7) was compared to commercial antimicrobials representing different functional classes (Table 3).
# [3] = system: Pseudomonas aeruginosa ATCC 9027; assay: Bactericidal activity in ionic surfactant hand wash / foamy hand soap base formula (HW); assay type: cell-based; conditions: pH 7.0
# Protocol: This example illustrates the preparation of testing parameters for antimicrobial activity of components of the inventive composition and related compositions for comparison. […] Mold were grown and minimum inhibitory tests performed as previously reported (see e.g., Buckley, H. L. et al. ACS Sustain. Chem. Eng. 5, 4320-4331, 2017). Microbes were grown on Mueller-Hinton agar (MHA, Sigma-Aldrich, St. Louis, Mo.) for 7 days until heavy sporulation was present. Spores from two agar plates were captured in sterile phosphate-buffered saline (PBS) using a sterile swab. Spores were enumerated by serial dilution in Dey-Engley neutralizing broth (DEB; Sigma-Aldrich) and spread plating on MHA. A typical spore stock was determined to contain ˜2×10^7 spores/mL. Bacteria were grown in MH broth for 24 h at 37° C., enumerated by plating, and diluted to the desired concentration as indicated.
# To test the various compounds, a foamy hand soap base formula was made with sodium lauryl sulfate (SLS, 2.4% w/w; Sulfochem SLS-PHP [30% active], The Lubrizol Corporation, Wickliffe, Ohio) and cocoamidopropyl betaine (CAPB, 1.2% w/w; Mackam 35 [30% active], Solvay S.A, Brussels, Belgium) in deionized water and sterilized by filtration (0.22 μm, PVDF; VWR, Radnor, Pa.). All test formulas were adjusted to the desired pH using citric acid and/or NaOH. All tubes were inoculated with 250 μL of spore inoculum (described above) to a total volume of 5 mL, for a final spore concentration of ˜1×10^6 spores/mL in each tube. […] About 100 μL of each inoculated foamy hand soap mixture was diluted 1:10 in DEB and 100 μL of this dilution was spread plated on MHA at several time points (e.g. 3 d, 7 d, 13 d, 18 d, and 20 d). Plates were incubated at room temperature for 3-5 days for mold (1-2 days for bacteria) and colonies enumerated.
# [4] = Dissolution / compatibility in water (observation); assay type: physicochemical
# Protocol: Several aryl derivatives of benzhydroxamic acid were also tested.
# [5] = system: P. aeruginosa; assay: Minimum inhibitory concentration (MIC) in Mueller-Hinton broth, pH 7.4; assay type: cell-based, Pseudomonas aeruginosa; parameters: Minimum inhibitory concentration: unit not given here; conditions: for Minimum inhibitory concentration: Table 2, ATCC 9027
# Protocol: as §1, §2
# Guanylhydrazones 7 and 8, which represent a class of broad-spectrum antimicrobials, alone and in combination with hydroxamic acids were evaluated.
# [6] = system: A. brasiliensis 16404; assay: USP-51 preservative challenge test of anionic, amphoteric surfactant-containing hand wash; assay type: cell-based, Aspergillus brasiliensis; conditions: HW pH 6; formulas: 0.4% 7; 0.5% CHA; 0.2% 7 + 0.5% CHA
# Protocol: (§3) Preservative challenge testing (USP-51).
# (§4) This example illustrates the surprising synergistic antimicrobial activity of the inventive composition and related compositions for comparison tested on two of the most persistent microorganisms tested in the USP 51 protocol: A. brasiliensis (ATCC No. 16404) and P. aeruginosa (ATCC NO. 9027). The effect of pH on antifungal properties of a HW formula containing 0.4% 7 and 0.5% CHA, alone and in combination, was then evaluated under a high fungal load (10^7 CFU/mL). […] Without intending to be bound by theory, it was suspected that the poor performance of the combination at neutral pH results from the milder conditions of this formula, which is more encouraging to mold growth.
# [7] = system: Aspergillus brasiliensis ATCC 16404; assay: Effect of pH on antifungal properties of HW formula under high fungal load; assay type: cell-based; conditions: 10^7 CFU/mL, pH 5.5-9.5
# Description: FIG. 1 illustrates the fungicidal properties of a handwash formula containing the inventive composition as further explained in the examples below. The Y axis presents the log reduction of cell forming units per mL (CFU/mL). The X axis presents the pH of the different formulas. Data for benzaldehyde guanylhydrazone 7+CHA is shown with black lines (BGH+CHA); data for benzaldehyde guanylhydrazone 7 (BGH) is shown with dotted lines; data for CHA alone is shown with grey lines.
# as §4
# [8] = system: mold; assay: USP <51> preservative efficacy in nonionic spray cleaner base (mold); assay type: cell-based, A. brasiliensis; conditions: alone, 0.1% in spray cleaner base
# Description: as §3
# [9] = system: P. aeruginosa ATCC 15442; assay: AOAC Use Dilution test; assay type: cell-based, Pseudomonas aeruginosa; conditions: 60 carriers tested, ten minutes contact time
# Protocol: (§5) MICROCHEM Laboratories completed the AOAC Use dilution, semi-quantitative test method against the 3 strains of bacteria using the maximum contact time of ten minutes with three replicates from the same sample submission. For the S. aureus testing, MICROCHEM Laboratories followed ASTM E2315 method with a 10 minute exposure but only a single replicate was tested. The ASTM E2315 quantitative test method was used by MICROCHEM Laboratories to access the performance of a single replicate of the test compounds against the MS2 virus using a 10 minute contact time.
# (§6) The killing efficacy of Cuminaldehyde Guanylhydrazone (CG) in water against three bacteria was evaluated using the AOAC Use Dilution test. While a passing kill rate against Pseudomonas aeruginosa, and a close to, but just below the target kill rate, for Salmonella enterica were detected, a kill rate against Staphylococcus aureus was not achieved. The test results were the same for both concentrations tested (0.2 wt. % and 0.5 wt. %).
# [10] = system: S. aureus ATCC 6538; assay: AOAC Use Dilution test; assay type: cell-based, Staphylococcus aureus; conditions: 60 carriers tested, ten minutes contact time
# Protocol: as §5, §6
# [11] = system: S. enterica ATCC 10708; assay: AOAC Use Dilution test; assay type: cell-based, Salmonella enterica; conditions: 60 carriers tested, ten minutes contact time
# Protocol: as §5, §6
# [12] = Stability of CG in commercial household products; assay type: physicochemical; conditions: nonionic spray cleaners, polishes, hand soap, liquid dish soap; refrigerator (2.8° C.), room temperature (21.1° C.), oven (40° C.), 3 freeze-thaw cycles
# Protocol: Freeze-thaw studies were conducted using a commercial refrigerator freezer and were completed over a two week period where the samples were frozen, thawed and observed for 3 cycles. Additional samples were stored in 15 mL Falcon tubes in the refrigerator, at room temperature and in a 40° C. oven. These samples were removed and evaluated at three time points in conjunction with the freeze-thaw samples. The compositions of the household products in which CG was stable are listed below in tables 13 and 14. The “Surfactant Control” was composed as follows: 4% 1,3-propanediol, 4% alkyl polyglucoside (C8-C16), 2% ethoxylated fatty alcohol (Clariant Genapol LA 070), 90% deionized water. Cuminaldehyde Guanylhydrazone (CG) was added to several different commercial products. Stability testing was performed in refrigerator (2.8° C.), at room temperature (21.1° C.), in an oven (40° C.), and through 3 freeze-thaw cycles. It was determined that CG was stable in at least 4 different classes of household products including nonionic spray cleaners, polishes, hand soap, and liquid dish soap. […] Not intending to be theory-bound, these instabilities may be attributed mainly to carbonate, anionic surfactants, or high pH.
# [13] = system: E. coli, S. aureus, P. aeruginosa, A. brasiliensis, B. cepacia, and C. albicans; conditions: 0.2% in nonionic spray cleaner base lacking additional preservatives; 28 days
# Description: Preservative challenge testing (USP-51). The protocol for the preservative challenge testing followed the US Pharmacopeia Chapter 51 (USP 51). Under the USP 51 protocol, the test organisms are Candida albicans (ATCC No. 10231), Aspergillus brasiliensis (also referred to as A. niger) (ATCC No. 16404), Escherichia coli (ATCC No. 8739), Pseudomonas aeruginosa (ATCC No. 9027), and Staphylococcus aureus (ATCC No. 6538). To access the potency of a preservative in a personal care product formula, microorganisms were added separately to a sample of the product formula, such that their final concentrations were between 1.00E+05 and 1.00E+06 CFU (colony forming units)/mL of product. The inoculated personal care product formulas were incubated at specific temperatures (relative to the organism) and plated over the course of two weeks. During plating, the number of colony-forming units (CFU's) were counted to determine the number of viable microbial cells still present in the solution. Antimicrobial effectiveness is determined by logarithmic reductions in growth over time.
# The effect of CG on mold, bacteria, and yeast were tested following the USP <51> procedure. […] For the instant examples, the criteria for passing the USP 51 preservative efficacy protocol against bacteria is a reduction of not less than 2-log 10 from the initial count at 14 days, and no increase from the 14 day count at 28 days. […]
# [14] = system: S. aureus; assay: Minimum inhibitory concentration (MIC) in Mueller-Hinton broth, pH 7.4; assay type: cell-based, Staphylococcus aureus
# Protocol: as §1, §2
# [15] = system: E. coli; assay: as above; assay type: cell-based, Escherichia coli
# Protocol: as §1, §2
# [16] = system: C. albicans; assay: as above; assay type: cell-based, Candida albicans
# Protocol: as §1, §2
# [17] = system: P. aeruginosa ATCC 9027; assay: Tile surface disinfectant test (adapted from ASTM E1153); assay type: cell-based, Pseudomonas aeruginosa; conditions: 200 ppm; 4×10^6 CFU/mL; sprayed ceramic tile
# Protocol: Tile surface disinfectant tests. Surface sanitation tests were adapted from ASTM Test Method E1153. Test bacteria (Escherichia coli ATCC 15597 and Pseudomonas aeruginosa ATCC 9027; American Type Culture Collection, Manassas, Va.) were streaked from frozen stock culture onto Mueller-Hinton agar (MHA; Sigma-Aldrich, St Louis, Mo.) and incubated at 30-37° C. for 2-4 days to produce isolated colonies. Two to three representative colonies were picked and transferred to 10 mL Mueller-Hinton broth (MHB; Sigma) and incubated at 37° C. overnight. Cultures underwent a maximum of 3 passes to fresh broth before being incubated for 48 h at 37° C. to be used as the inoculum. Sterile, glazed 2×2-inch ceramic tiles were inoculated with 100 μL of 48 h culture and allowed to dry for <1 h. Spray sanitizer solutions were prepared by mixing the test compound (5) in deionized, filtered water. Benzalkonium chloride (≥95%, Sigma) or bleach solution was used as a positive control and deionized, filtered water was used as a negative control. Solutions were transferred to 250 mL spray bottles, previously checked for spray volume consistency. For each treatment, tiles were sprayed 3 times. At the designated contact time, 15 mL of Dey-Engley broth (DEB; Sigma) was poured onto the tiles. Tiles were briskly swirled 50 times with DEB to neutralize antimicrobial agents and recover bacteria. This procedure was followed in duplicate for each treatment and contact time. The sanitizer-DEB solutions were then serially diluted in phosphate-buffered saline and plated on MHA. MHA plates were incubated at 37° C. for 18-24 h and colonies enumerated. To determine log reduction, bacteria recovered from treated tiles were compared to bacteria recovered from 2-3 replicate inoculated, untreated tiles.
# [18] = hand soap formula, 0.2 wt % 8 alone
# [19] = hand soap formula, 0.3 wt % 8 alone, minimum detection limit 5.0 × 10^1
# [20] = HW, substance alone 0.1%, 1 × 10^6 CFU/ml, 37° C.
smiles,measurement,setting,value
"CCCCCCCCc1ccc(C=NNC(=N)N)cc1 [4-n-octylbenzaldehyde guanylhydrazone 8, 4-n-octylbenzaldehyde guanylhydrazone]",Minimum inhibitory concentration,[1],0.002
same,CFU/mL after 7 d contact time,[2]; [18],>2 × 10^4 CFU/mL
same,"CFU/mL, incubation time 3 d",[2]; [19],>2.5 × 10^4 CFU/mL
same,"CFU/mL, incubation time 7 d",[2]; [19],>2.5 × 10^4 CFU/mL
same,"CFU/mL, incubation time 13 d",[2]; [19],>2.5 × 10^4 CFU/mL
same,"CFU/mL, incubation time 18 d",[2]; [19],>2.5 × 10^4 CFU/mL
same,"CFU/mL, incubation time 20 d",[2]; [19],>2.5 × 10^4 CFU/mL
same,CFU/mL after 7 d contact time,[3]; [18],>2 × 10^4 CFU/mL
same,compatibility in water,[4]; sample preparation for extended preservative test,not compatible in water
"N=C(N)NN=Cc1ccccc1 [Benzaldehyde guanylhydrazone 7, Benzaldehyde guanylhydrazone]",Minimum inhibitory concentration,[5],0.06
same,Log reduction Week 2,"[2]; HW, 0.4 wt %, 1 × 10^6 CFU/mL, 25° C.",none
same,Day 3 Log Reduction,[3]; [20],4 Log
same,Day 10 Log Reduction,[3]; [20],4 Log
same,"Log10 Reduction, Day 6",[6],0.35 Log10
same,antifungal performance over the pH range,[7]; HW with 0.4% 7 alone,"poor performance, except at high pH"
"CC(C)c1ccc(/C=N/NC(=N)N)cc1 [CG, (2E)-2-{[4-(propan-2-yl)phenyl]methylidene} hydrazine-1-carboximidamidium]",log reduction of mold (not eliminated to nondetectable levels),[8],< 4 log
same,Confirmed Positive carriers,[9]; CG 0.2 wt. % in water,2
same,Result,[9]; CG 0.2 wt. % in water,Pass (6)
same,Confirmed Positive carriers,[9]; CG 0.5 wt. % in water,2
same,Result,[9]; CG 0.5 wt. % in water,Pass (6)
same,Confirmed Positive carriers,[10]; CG 0.2 wt. % in water,12
same,Result,[10]; CG 0.2 wt. % in water,Fail (3)
same,Confirmed Positive carriers,[10]; CG 0.5 wt. % in water,12
same,Result,[10]; CG 0.5 wt. % in water,Fail (3)
same,Confirmed Positive carriers,[11]; CG 0.2 wt. % in water,2
same,Result,[11]; CG 0.2 wt. % in water,Fail (2)
same,Confirmed Positive carriers,[11]; CG 0.5 wt. % in water,2
same,Result,[11]; CG 0.5 wt. % in water,Fail (2)
same,stability in household products,[12],stable
same,"USP 51 preservative efficacy protocol result against bacteria, yeast, and mold",[13],passed
"CCCCCCCC(=O)NO [Caprylhydroxamic acid (CHA), Caprylhydroxamic acid]",MIC,[14],0.2 wt %
same,MIC,[5],0.5 wt %
same,Minimum inhibitory concentration,[5],0.5
same,MIC,[1],0.03 wt %
same,Minimum inhibitory concentration,[1],0.03
same,MIC,[15],0.1 wt %
same,MIC,[16],0.03 wt %
same,"Log10 Reduction, Day 6",[6],2.24 Log10
same,log reduction over the entire pH range,"[7]; HW with 0.5% CHA alone, plated six days after inoculation",0-1 log
same,dissolution behaviour,"[4]; solubilizing for testing, room temperature",required heating and stirring to solubilize
"O=C([O-])c1ccccc1.[Na+] [Sodium benzoate, sodium benzoate]",log reduction of mold (not eliminated to nondetectable levels),[8],< 2 log
OCl [sodium hypochlorite],reduction at 15 seconds,[17],97.44%
same,reduction at 5 min,[17],> 99.998%
same,reduction at 10 min,[17],> 99.998%
